Literature values in article PMC11901438, “Synthesis and Evaluation of Boron-Containing Heterocyclic Compounds with Antimicrobial and Anticancer Activities” (Molecules, 2025).
Values after ≈ are worked out from the molar mass of the structure shown.

System: Mycobacterium tuberculosis
Design: method as in PMID 33410233
Settings: earlier work of the same laboratory; cited from earlier work

Compound	MIC90 (CIM90) anti-Mycobacterium tuberculosis
O=C(Nc1ccc(N2CCN(c3ccccn3)CC2)c(F)c1)c1ccc2no[n+]([O-])c2c1 [Compound 1]	0.09 µM (≈ 0.0391 µg/mL)
O=C(Nc1ccc(N2CCOCC2)c(F)c1)c1ccc2no[n+]([O-])c2c1 [Compound 5]	5.22 µM (≈ 1.87 µg/mL)
O=C(Nc1ccc(N2CCN(c3ncccn3)CC2)c(F)c1)c1ccc2no[n+]([O-])c2c1 [Compound 2]	2.22 µM (≈ 0.967 µg/mL)
O=C(Nc1ccc(N2CCSCC2)c(F)c1)c1ccc2no[n+]([O-])c2c1 [Compound 4]	0.70 µM (≈ 0.262 µg/mL)
O=C(Nc1ccc(N2CCN(c3ccc(F)cc3)CC2)c(F)c1)c1ccc2no[n+]([O-])c2c1 [Compound 3]	3.82 µM (≈ 1.72 µg/mL)
O=C(Nc1ccc(N2CCCCCC2)c(F)c1)c1ccc2no[n+]([O-])c2c1 [Compound 6]	2.89 µM (≈ 1.07 µg/mL)
